# Measurements as given in US20110028566A1, “COMPOSITIONS AND PRODUCTS CONTAINING CYCLOALIPHATIC DIOL ANTIMICROBIAL AGENTS AND METHODS OF USING THE COMPOSITIONS AND PRODUCTS” (EASTMAN CHEMICAL COMPANY, priority 2009, published 2011).
# Values joined by “and” are separate entries in the source; they are usually repeats but may differ in a detail not shown here. Equal values may be shown once.
# Experiments:
# [1] = test system: Aspergillus niger ATCC 16404; assay: MIC determination and synergy testing (Kull synergy index), microplate; type: cell-based
# Description: The test cultures are listed in Table 7 along with the incubation temperatures used for growth and minimum inhibitory concentration (MIC) testing. […] C. albicans was cultured in Sabouraud dextrose broth (SDB) for approximately 44-52 hours for preparation of inoculum. A. niger was cultured on Sabouraud dextrose agar (SDA) for 3-4 days until there was confluent growth and visible spore formation. Spores were harvested from the SDA plates by flooding the surface of the plate with 5-10 mL of phosphate-buffered saline (PBS) and gently spreading the liquid across the surface of the plate with a sterile T-shaped plastic spreader (Copan Diagnostics) until there was a well-mixed suspension of spores. The resulting spore suspension was collected using a serological pipette and stored at 2-8° C. until use.
# Inoculum concentration was determined by dilution plating of the cultures or spore suspension. A serial dilution in PBS was made to 10^−8 for the bacterial cultures or 10^−5 for the fungal cultures. Fifty or 100 μL of the final dilution was spread on two Trypticase-soy agar (TSA) plates for bacteria or two SDA plates for fungi. After 24 to 48 hours plates were counted and the concentrations used in each experiment were calculated.
# The A. niger spore suspensions were concentrated to a level of 1-2×10^8 spores/mL by centrifugation and resuspension in a portion of the resulting supernatant.
# The antimicrobial agents tested for synergy along with the respective diluents and working stock solution concentrations are shown below. For determination of MIC ranges, individual antimicrobial agent stock solutions were added to sterile medium to yield the highest level test concentrations, and then serially diluted in the medium to prepare the range of test concentrations. For synergy testing individual test concentrations were prepared in sterile medium, and then blended to form the desired combinations.
# MICs were determined using a high-throughput microplate method. Individual antimicrobial agents were added to TSB (pH 7.3) for bacterial testing or SDB (pH 5.6) for fungal testing at the highest concentration to be tested. A serial dilution series was prepared at a dilution ratio of 1:1.3333 such that a one log range was covered in nine dilutions. Two-hundred microliters of the diluted antimicrobial agents were dispensed into four wells each of a sterile, 96-well, flat-bottom microplate (Nalge Nunc International). Four additional wells of the highest concentration were dispensed to serve as uninoculated high-level controls. Eight additional wells containing only broth medium were also prepared, four to serve as negative controls and four as positive controls. Three wells of each antimicrobial agent dilution were inoculated with one of the test strains in Table 7. The final well of each antimicrobial agent dilution was left uninoculated to serve as a control (and means of compensating) for any absorbance/turbidity due to the test compounds.
# Microplates were inoculated using the cultures or spore suspensions prepared as described above. The S. aureus cultures were used undiluted, while the E. coli and P. aeruginosa cultures were used either undiluted or after a 1:2 dilution in sterile TSB. The C. albicans cultures were used either undiluted or following a 2-fold concentration by centrifugation. One of two means of inoculation was used to deliver a final concentration of approximately 10^5 colony-forming units (CFU)/mL of C. albicans, 10^5 spores/mL of A. niger, or 10^6 CFU/mL of bacteria. The primary method used a stainless steel pin replicator (Nalge Nunc International) mounted on a hand-operated bench-top press (Schmidt Technology Corporation) fitted with a custom-built microplate holder to dispense one microliter of each inoculum from a “master” plate containing 50-100 μL of culture into the wells of the test plate. The pin replicator was sterilized before and between inoculations by immersing in ethanol and flaming. […]
# [2] = test system: Aspergillus niger; assay: Microbial challenge testing in BPW; type: cell-based; settings: for Grade code, A. niger, 3 Day / Grade code, A. niger, 13 Day / Grade code, A. niger, 30 Day: BPW, w/v % in label, average of replicates
# Description: The microorganisms used in challenge tests are given in Table 3, designated as either ATCC (American Type Culture Collection) or wild type. These wild type organisms were problematic organisms previously isolated from chemical products. In the description for each organism, the bacteria are indicated as either GN (Gram negative) or GP (Gram positive).
# All of the microorganisms were grown in Tryptose Soy Broth (TSB), DIFCO™ available from Becton, Dickinson and Company, containing 1% dextrose. Aspergillus niger and Candida albicans were incubated at 22° C.±2° C. for at least 96 hours. All bacteria were incubated at 35° C.±2° C. in a humidified incubator for at least 96 hours.
# Aspergillus niger and Candida albicans were also grown on Sabouraud dextrose agar (SDA) at 22° C.±2° C. for 7 to 14 days or until full sporulation was achieved.
# The following procedure was followed to determine the amount of each challenge material (inoculum broth) required to produce a 10^8 cfu/mL challenge, which is equivalent to a final test-sample microbial concentration of 10^5 to 10^6 cfu (colony-forming units)/mL.
# Using a sterile serological pipette, 1 mL of the growth from each TSB culture was transferred into tubes containing 9 mL phosphate buffer (pH 7.2) and mixed thoroughly. This process was repeated to make serial 1:10 dilutions. Then 0.1 mL of each sample and dilution was inoculated onto agar plates to produce the equivalent of a further 1:10 dilution. C. albicans and A. niger were inoculated onto SDA and bacteria were inoculated onto Plate Count Agar (PCA), DIFCO™ available from Becton, Dickinson and Company. The 0.1 mL aliquots were evenly distributed on the plates using the spread-plate technique. The spread-plate technique is performed by spreading the aliquot over the entire plate surface using a sterile spreading rod while rotating the plate with a rotary auto-plater. After the inoculum was absorbed completely, each plate was inverted and incubated (fungi at 22° C.±2° C. and bacteria at 35° C.±2° C.).
# After incubation for at least 48 hours, colonies that had developed on the agar plates were counted and recorded with the corresponding dilution. If counting had to be delayed temporarily, plates were refrigerated, preferably no more than 24 hours, until they could be counted. The number of cfu/mL was determined by multiplying the count by the dilution factor for that particular plate.
# Turbidity in Nepholemetric Turbidity Units (NTU) was measured for each serial dilution using the HF-Micro 100 Model Turbidimeter. For each microorganism, the plate counts were compared to the turbidity readings.
# Aspergillus niger cultures were harvested and spores dislodged from the SDA on which they were grown by rubbing the growth gently with a sterile inoculating loop. The spores were then mixed into the broth culture that had been incubated with a sterile magnetic stir bar to reduce pellicle formation. The spore-culture mixture was filtered repeatedly through sterile, non-absorbent cotton and harvested repeatedly, adjusting vegetative cells and spores to a level of 1.0×10^8. A hemocytometer was used to verify the final challenge concentration.
# Control substrates (“broth alone”) were prepared for each microorganism separately in triplicate by adding 13.5 mL of BPW (pH 7.0) containing 1% (w/v) dextrose to each 20-mL glass tube; then adding 1.5 mL challenge material to produce a final concentration at time zero of 10^5 to 10^6 cfu/mL and a total volume of 15 mL.
# Test sample substrates were prepared containing each test material (1,4-CHDM, etc) or combination of test materials at the concentrations shown in Tables 5 and 6.
# [3] = A. niger, plate 154C, day 3, MP and CHDM
smiles,measurement,setting,value
"CCCCCCC(O)CO (centres unmarked) [CG, 1,2-octanediol]","Synergism of antimicrobial agent in combination with 1,4-CHDM for A. niger (in words; in the 12th table the cell names the organism and table number)","[1]; Kull synergy index, synergistic when at least two results SI<1",A. niger (14)
same,"Grade code, A. niger, 3 Day",[2]; 3 days incubation,4
same,"Grade code, A. niger, 13 Day","[2]; 13 days incubation, listed as 0.25% CG",4
same,"Grade code, A. niger, 13 Day","[2]; 13 days incubation, listed as 0.5% CG",2 (Countable (11 to 100 colonies))
same,"Grade code, A. niger, 30 Day","[2]; 30 days incubation, listed as 0.25% CG",4
same,"Grade code, A. niger, 30 Day","[2]; 30 days incubation, listed as 0.5% CG",1 (Countable (1 to 10 colonies))
"CC1(C)C(O)C(C)(C)C1O (centres unmarked) [TMCD, 2,2,4,4-tetramethyl-1,3-cyclobutanediol]",Grade code A. niger,"[2]; 0.5%, 3 days incubation",5
same,Grade code A. niger,"[2]; 0.5%, 13 days incubation",5
same,Grade code A. niger,"[2]; 0.5%, 30 days incubation",5
same,Grade code A. niger,"[2]; 1.25%, 3 days incubation",4
same,Grade code A. niger,"[2]; 1.25%, 13 days incubation",4
same,Grade code A. niger,"[2]; 1.25%, 30 days incubation",4
same,Grade code A. niger,"[2]; 2.5%, 3 days incubation",3 (Individual colonies not countable; >75% of plate covered with growth)
same,Grade code A. niger,"[2]; 2.5%, 13 days incubation",2 (Countable (11 to 100 colonies))
same,Grade code A. niger,"[2]; 2.5%, 30 days incubation",3 (Individual colonies not countable; >75% of plate covered with growth)
"O=C([O-])CN(CCN(CC(=O)O)CC(=O)O)CC(=O)[O-].[Na+].[Na+] [EDTA, ethylenediaminetetraacetic acid disodium salt]","Grade code, A. niger, 3 Day",[2]; 3 days incubation,4
same,"Grade code, A. niger, 13 Day",[2]; 13 days incubation,4
same,"Grade code, A. niger, 30 Day",[2]; 30 days incubation,4
"OCC1CCC(CO)CC1 (centres unmarked) [1,4-CHDM, 1,4-cyclohexanedimethanol]","QA, MIC of CHDM alone","[1]; A. niger, day 2 of incubation, plates 123C, 217C (CG series)",4.50 weight percent and 3.11 weight percent
same,"QA, MIC of CHDM alone","[1]; A. niger, day 3 of incubation, plate 123C (CG series)",3.11 weight percent
same,"QA/a: concentration of CHDM (MIC alone, or in the combination at an inhibitory concentration)",[1]; [3],2.03 weight percent
same,SI (synergy index),[1]; [3],1.00
same,QA/a,"[1]; CHDM alone (QA) or in combination with DMDM hydantoin (a), plate 196C, day 3",2.78
same,QA/a,"[1]; CHDM alone (QA) or in combination with IPBC (a), plate 259C, day 2",5.00
same,QA/a,"[1]; CHDM alone (QA) or in combination with IPBC (a), plate 260C, day 3",6.50
same,QA/a,"[1]; CHDM: MIC alone (QA) or conc. in combination with BA:DHA (a), plate 195C, day 2",4.93
same,QA/a,"[1]; CHDM: MIC alone (QA) or conc. in combination with BA:DHA (a), plate 195C, day 3",4.93
same,QA/a,"[1]; CHDM: MIC alone (QA) or conc. in combination with BA:DHA (a), plate 215C, day 2",4.50
same,QA/a,"[1]; CHDM: MIC alone (QA) or conc. in combination with BA:DHA (a), plate 215C, day 3",4.50
same,QA/a,"[1]; CHDM: MIC alone (QA) or conc. in combination with CP (a), plate 194C, day 2",3.70
same,QA/a,"[1]; CHDM: MIC alone (QA) or conc. in combination with CP (a), plate 194C, day 3",2.78
same,QA/a,"[1]; CHDM: MIC alone (QA) or conc. in combination with MIT (a), plate 193C, day 2",4.93
same,QA/a,"[1]; CHDM: MIC alone (QA) or conc. in combination with MIT (a), plate 193C, day 3",2.78
same,QA/a,"[1]; CHDM: MIC alone (QA) or conc. in combination with MIT (a), plate 214C, day 2",4.50
same,QA/a,"[1]; CHDM: MIC alone (QA) or conc. in combination with MIT (a), plate 214C, day 3",6.00
same,Grade code A. niger,"[2]; 0.5%, 3 days incubation",4
same,Grade code A. niger,"[2]; 0.5%, 13 days incubation",4
same,Grade code A. niger,"[2]; 0.5%, 30 days incubation",4
same,Grade code A. niger,"[2]; 1.25%, 3 days incubation",4
same,Grade code A. niger,"[2]; 1.25%, 13 days incubation",4
same,Grade code A. niger,"[2]; 1.25%, 30 days incubation",4
same,Grade code A. niger,"[2]; 2.5%, 3 days incubation",2 (Countable (11 to 100 colonies))
same,Grade code A. niger,"[2]; 2.5%, 13 days incubation",1 (Countable (1 to 10 colonies))
same,Grade code A. niger,"[2]; 2.5%, 30 days incubation",2.3
same,"Grade code, A. niger, 3 Day","[2]; 3 days incubation, listed as 0.5% AB",4
same,"Grade code, A. niger, 3 Day","[2]; 3 days incubation, listed as 1.25% AB",4
same,"Grade code, A. niger, 3 Day","[2]; 3 days incubation, listed as 2.5% AB",2 (Countable (11 to 100 colonies))
same,"Grade code, A. niger, 13 Day","[2]; 13 days incubation, listed as 0.5% AB",4
same,"Grade code, A. niger, 13 Day","[2]; 13 days incubation, listed as 1.25% AB",4
same,"Grade code, A. niger, 13 Day","[2]; 13 days incubation, listed as 2.5% AB",1 (Countable (1 to 10 colonies))
same,"Grade code, A. niger, 30 Day","[2]; 30 days incubation, listed as 0.5% AB",4
same,"Grade code, A. niger, 30 Day","[2]; 30 days incubation, listed as 1.25% AB",4
same,"Grade code, A. niger, 30 Day","[2]; 30 days incubation, listed as 2.5% AB",2.3
